Laboratory results as given in ChEMBL document CHEMBL4393706, “Ursolic acid derivative induces apoptosis in glioma cells through down-regulation of cAMP” (2019).
Activity calls are given as the source filed them. The calls are words filed in the database; no cut-off is given here.

Key:
[1] = system: U-251; test: Antiproliferative activity against human U251 cells assessed as reduction in cAMP level at 2 uM measured after 48 hrs by radio-immunoassay; assay type: functional, cell-based
[2] = system: U-251; test: Induction of morphological changes in human U251 cells assessed as inhibtion of cell surface extension at 6 to 10 uM measured after 48 hrs by scanning electron microscopy; assay type: functional, cell-based
[3] = system: U-251; test: Induction of morphological changes in human U251 cells assessed as appearance of foamy cytoplasmic material at 6 to 10 uM measured after 48 hrs by transmission electron microscopy; assay type: functional, cell-based
[4] = system: U-251; test: Cell cycle arrest in human U251 cells assessed as accumulation at S phase at 10 uM measured after 48 hrs by propidium iodide staining based FACScan flow cytometry (reference value: 16.34 %); assay type: functional
[5] = system: U-251; test: Induction of morphological changes in human U251 cells assessed as appearance of autophagic vacuoles at 6 to 10 uM measured after 48 hrs by transmission electron microscopy; assay type: functional, cell-based
[6] = system: U-251; test: Induction of apoptosis in human U251 cells assessed as apoptotic cells at 10 uM measured after 48 hrs by annexin V/FITC-propidium iodide staining-based flow cytometric method relative to control; assay type: functional
[7] = system: U-251; test: Antiproliferative activity against human U251 cells measured after 48 hrs by MTT assay; assay type: functional, cell-based
[8] = system: U-251; test: Induction of apoptosis in human U251 cells assessed as increase in apoptotic cells at 2 uM measured after 48 hrs by annexin V/FITC-propidium iodide staining-based flow cytometric method; assay type: functional, cell-based
[9] = system: C6; test: Antiproliferative activity against rat C6 cells assessed as cell proliferation at 2 uM measured after 48 hrs relative to control; assay type: functional; details: C6, 48 h, read-out: Activity
[10] = system: U-251; test: Antiproliferative activity against human U251 cells assessed as reduction in cAMP level at 4 to 10 uM measured after 48 hrs by radio-immunoassay; assay type: functional, cell-based
[11] = system: C6; test: Antiproliferative activity against rat C6 cells assessed as cell proliferation at 6 uM measured after 48 hrs relative to control; assay type: functional; details: C6, 48 h, read-out: Activity
[12] = system: U-251; test: Cell cycle arrest in human U251 cells assessed as accumulation at G2/M phase at 8 uM measured after 48 hrs by propidium iodide staining based FACScan flow cytometry (reference value: 52.67 %); assay type: functional
[13] = system: U-251; test: Induction of morphological changes in human U251 cells assessed as movement of chromatin granules towards periphery of nucleoplasm at 10 uM measured after 48 hrs by transmission electron microscopy; assay type: functional, cell-based
[14] = system: C6; test: Antiproliferative activity against rat C6 cells measured after 48 hrs by MTT assay; assay type: functional, cell-based
[15] = system: U-251; test: Cell cycle arrest in human U251 cells assessed as accumulation at G0/G1 phase at 4 uM measured after 48 hrs by propidium iodide staining based FACScan flow cytometry (reference value: 29.21 %); assay type: functional
[16] = system: U-251; test: Induction of morphological changes in human U251 cells assessed as appearance of lipid droplets at 10 uM measured after 48 hrs by transmission electron microscopy; assay type: functional, cell-based
[17] = system: U-251; test: Induction of autophagy in human U251 cells assessed as morphological changes at 10 uM measured after 48 hrs by transmission electron microscopy; assay type: functional, cell-based
[18] = system: U-251; test: Antiproliferative activity against human U251 cells assessed as cell proliferation at 10 uM measured after 48 hrs relative to control; assay type: functional; details: U-251, 48 h, read-out: Activity
[19] = system: U-251; test: Induction of morphological changes in human U251 cells assessed as membrane blebbing at 6 to 10 uM measured after 48 hrs by transmission electron microscopy; assay type: functional, cell-based
[20] = system: U-251; test: Cytotoxicity against human U251 cells at 5 uM measured after 48 hrs by MTT assay; assay type: functional, cell-based
[21] = system: U-251; test: Antiproliferative activity against human U251 cells assessed as cell proliferation at 6 uM measured after 48 hrs relative to control; assay type: functional; details: U-251, 48 h, read-out: Activity
[22] = system: U-251; test: Cell cycle arrest in human U251 cells assessed as accumulation at S phase at 8 uM measured after 48 hrs by propidium iodide staining based FACScan flow cytometry (reference value: 16.34 %); assay type: functional
[23] = system: U-251; test: Cell cycle arrest in human U251 cells assessed as accumulation at G2/M phase at 10 uM measured after 48 hrs by propidium iodide staining based FACScan flow cytometry (reference value: 52.67 %); assay type: functional
[24] = system: C6; test: Antiproliferative activity against rat C6 cells assessed as cell proliferation at 8 uM measured after 48 hrs relative to control; assay type: functional; details: C6, 48 h, read-out: Activity
[25] = system: C6; test: Antiproliferative activity against rat C6 cells assessed as cell proliferation at 4 uM measured after 48 hrs relative to control; assay type: functional; details: C6, 48 h, read-out: Activity
[26] = system: U-251; test: Antiproliferative activity against human U251 cells assessed as cell proliferation at 4 uM measured after 48 hrs relative to control; assay type: functional; details: U-251, 48 h, read-out: Activity
[27] = system: U-251; test: Induction of apoptosis in human U251 cells assessed as apoptotic cells at 8 uM measured after 48 hrs by annexin V/FITC-propidium iodide staining-based flow cytometric method relative to control; assay type: functional
[28] = system: U-251; test: Antiproliferative activity against human U251 cells assessed as cell proliferation at 2 uM measured after 48 hrs relative to control; assay type: functional; details: U-251, 48 h, read-out: Activity
[29] = system: U-251; test: Antiproliferative activity against human U251 cells assessed as cell proliferation at 8 uM measured after 48 hrs relative to control; assay type: functional; details: U-251, 48 h, read-out: Activity
[30] = system: C6; test: Antiproliferative activity against rat C6 cells assessed as cell proliferation at 10 uM measured after 48 hrs relative to control; assay type: functional; details: C6, 48 h, read-out: Activity
[31] = system: U-251; test: Cell cycle arrest in human U251 cells assessed as accumulation at G2/M phase at 6 uM measured after 48 hrs by propidium iodide staining based FACScan flow cytometry (reference value: 52.67 %); assay type: functional
[32] = system: U-251; test: Induction of morphological changes in human U251 cells assessed as chromatin condensation at 6 to 10 uM measured after 48 hrs by transmission electron microscopy; assay type: functional, cell-based
[33] = system: U-251; test: Antiproliferative activity against human U251 cells assessed as reduction in cAMP level at 6 uM measured after 48 hrs by radio-immunoassay relative to control; assay type: functional; design: scale not given: the % may be the effect or the level left
[34] = system: U-251; test: Cell cycle arrest in human U251 cells assessed as accumulation at G0/G1 phase at 8 uM measured after 48 hrs by propidium iodide staining based FACScan flow cytometry (reference value: 29.21 %); assay type: functional
[35] = system: U-251; test: Induction of morphological changes in human U251 cells assessed as inhibtion of microvilli at 6 to 10 uM measured after 48 hrs by scanning electron microscopy; assay type: functional, cell-based
[36] = system: U-251; test: Induction of apoptosis in human U251 cells assessed as apoptotic cells at 4 uM measured after 48 hrs by annexin V/FITC-propidium iodide staining-based flow cytometric method ( Rvb = 2.34%); assay type: functional
[37] = system: U-251; test: Cell cycle arrest in human U251 cells assessed as accumulation at G0/G1 phase at 10 uM measured after 48 hrs by propidium iodide staining based FACScan flow cytometry (reference value: 29.21 %); assay type: functional
[38] = system: U-251; test: Cell cycle arrest in human U251 cells assessed as accumulation at S phase at 6 uM measured after 48 hrs by propidium iodide staining based FACScan flow cytometry (reference value: 16.34 %); assay type: functional
[39] = system: U-251; test: Induction of apoptosis in human U251 cells assessed as apoptotic cells at 6 uM measured after 48 hrs by annexin V/FITC-propidium iodide staining-based flow cytometric method relative to control; assay type: functional
[40] = system: U-251; test: Cell cycle arrest in human U251 cells assessed as accumulation at G0/G1 phase at 6 uM measured after 48 hrs by propidium iodide staining based FACScan flow cytometry (reference value: 29.21 %); assay type: functional

C[C@H]1[C@H](C)CC[C@]2(C(=O)O)CC[C@]3(C)C(=CC[C@@H]4[C@@]5(C)C/C(=C(\c6ccc(O)cc6O)C(c6ccccc6O)c6c[nH]c7ccccc67)C(=O)C(C)(C)[C@@H]5CC[C@]43C)[C@H]12 (stereo not given in full)
Activity [1]: inactive
Activity [2]: Active
Activity [3]: Active
Activity [4]: 9.65%
Activity [5]: Active
Activity [6]: 69.32%
Activity [7]: Dose-dependent effect
Activity [8]: inactive
growth at 2 µM [9]: 99%
Activity [10]: Active
growth at 6 µM [11]: 68%
Activity [12]: 42.45%
Activity [13]: Active
Activity [14]: Dose-dependent effect
Activity [15]: 32.44%
Activity [16]: Active
Activity [17]: Active
growth at 10 µM [18]: 17%
Activity [19]: Active
Activity [20]: Active
growth at 6 µM [21]: 61%
Activity [22]: 11.78%
Activity [23]: 35.23%
growth at 8 µM [24]: 43%
growth at 4 µM [25]: 86%
growth at 4 µM [26]: 83%
Activity [27]: 39.78%
growth at 2 µM [28]: 99%
growth at 8 µM [29]: 39%
growth at 10 µM [30]: 21%
Activity [31]: 49.26%
Activity [32]: Active
Activity [33]: 50%
Activity [34]: 41.78%
Activity [35]: Active
Activity [36]: 8.56%
Activity [37]: 53.76%
Activity [38]: 12.51%
Activity [39]: 21.65%
Activity [40]: 36.16%
